The record followed here is patent US4748154A, “Peptide derivatives, their production and use” (Takeda Chemical Industries, Ltd., priority 1985, dated 1988).

Square brackets hold non-standard residues; d marks the D form. Peptide text beside a SMILES is read from it. * marks the point of attachment. Cys(free,S-linked) = N[C@@H](CS*)C(=O)O; pGlu = O=C1CC[C@@H](C(=O)O)N1

This test relates to C57BL/6 mice. Kind of test: one-trial passive avoidance task, amnesia induced by cycloheximide. It is filed as in vivo. The note with it: 24 h after footshock and cycloheximide 20 mg/kg sc. How it is done:
The effect on memory process was tested in a one-trial passive avoidance task in C57BL/6 mice. The learning procedure was fundamentally the same as that used by Burbach et al (Science; 221, 1310-1312, 1983). The apparatus consisted of an illuminated compartment attached to a dark one with grid floor. Mice were placed in the light compartment and allowed to enter the dark one. When mice entered the dark compartment, an electric footshock (0.4 mA, 3 sec) was delivered. Immediately after receiving a footshock, mice were administered with cycloheximide (20 mg/kg, sc), a protein synthesis inhibitor, and a retention test trial was carried out 24 hours later. Retention of passive avoidance behavior was measured by the latency to reenter the dark compartment after placing mice in the light compartment. Five minutes before the testing, mice were treated with 5 μl of peptide in a dose of 10 pg and 10 ng by intracerebroventricular injection through a hypodermic needle attached to a 25 μl syringe. Compounds of the present invention were dissolved in saline. […] Median latencies in peptide-treated groups were expressed as a percentage of that in control, and either Mann-WhitneyU test for latencies or chi-square test for percent of mice showing latencies longer than 50 seconds was used in statistical analysis. Number of mice used in each group was 9-22.

[1] abbreviates: intracerebroventricular injection (10 pg and 10 ng tested; dose not stated per value) 5 min before retention test.

As to `NCCCC[C@@H](NC(=O)[C@@H]1CCCN1C(=O)[C@H](CSSC[C@H](N)C(=O)O)NC(=O)[C@H](CC(N)=O)NC(=O)[C@@H]1CCC(=O)N1)C(=O)O` [Example 1] ([pGlu]NC(Cys(free,S-linked))P[dK]-OH), under setting [1], the “median latency to reenter the dark compartment, as a percentage of that in control” value is on record as 238%.

On to `NCCCC[C@@H](NC(=O)[C@H]1CCCN1C(=O)[C@H](CSSC[C@H](N)C(=O)O)NC(=O)[C@H](CC(N)=O)NC(=O)[C@@H]1CCC(=O)N1)C(=O)O` [Example 6] ([pGlu]NC(Cys(free,S-linked))[dP][dK]-OH), for which, under setting [1], the “median latency to reenter the dark compartment, as a percentage of that in control” value is recorded as 238%.

Regarding `C[C@H](NC(=O)[C@H](CSSC[C@H](N)C(=O)O)NC(=O)[C@H](CC(N)=O)NC(=O)[C@@H]1CCC(=O)N1)C(=O)N[C@H](CCCCN)C(=O)O` [Example 8] ([pGlu]NC(Cys(free,S-linked))A[dK]-OH), the “median latency to reenter the dark compartment, as a percentage of that in control” value under setting [1] turned out to be 179%.

For `N=C(N)NCCC[C@H](NC(=O)[C@@H]1CCCN1C(=O)[C@H](CSSC[C@H](N)C(=O)O)NC(=O)[C@H](CC(N)=O)NC(=O)[C@@H]1CCC(=O)N1)C(=O)NCC(N)=O` [reference compound] ([pGlu]NC(Cys(free,S-linked))PRG-NH2), where the note is “dose of 10 pg, intracerebroventricular injection 5 min before retention test”, the “median latency to reenter the dark compartment, as a percentage of that in control” value is given as 191 % of control.
